Where “and” joins values, the source holds several entries; their conditions need not be identical. Equal entries are not always repeated.
Columns and labels:
[1] = target: T1, Tca-Pgp-11.1 (Toxocara canis, UniProt A0A891XKB7); experiment: H33342 efflux inhibition assay; type: cell-based
T1 sequence (A0A891XKB7 1-1282): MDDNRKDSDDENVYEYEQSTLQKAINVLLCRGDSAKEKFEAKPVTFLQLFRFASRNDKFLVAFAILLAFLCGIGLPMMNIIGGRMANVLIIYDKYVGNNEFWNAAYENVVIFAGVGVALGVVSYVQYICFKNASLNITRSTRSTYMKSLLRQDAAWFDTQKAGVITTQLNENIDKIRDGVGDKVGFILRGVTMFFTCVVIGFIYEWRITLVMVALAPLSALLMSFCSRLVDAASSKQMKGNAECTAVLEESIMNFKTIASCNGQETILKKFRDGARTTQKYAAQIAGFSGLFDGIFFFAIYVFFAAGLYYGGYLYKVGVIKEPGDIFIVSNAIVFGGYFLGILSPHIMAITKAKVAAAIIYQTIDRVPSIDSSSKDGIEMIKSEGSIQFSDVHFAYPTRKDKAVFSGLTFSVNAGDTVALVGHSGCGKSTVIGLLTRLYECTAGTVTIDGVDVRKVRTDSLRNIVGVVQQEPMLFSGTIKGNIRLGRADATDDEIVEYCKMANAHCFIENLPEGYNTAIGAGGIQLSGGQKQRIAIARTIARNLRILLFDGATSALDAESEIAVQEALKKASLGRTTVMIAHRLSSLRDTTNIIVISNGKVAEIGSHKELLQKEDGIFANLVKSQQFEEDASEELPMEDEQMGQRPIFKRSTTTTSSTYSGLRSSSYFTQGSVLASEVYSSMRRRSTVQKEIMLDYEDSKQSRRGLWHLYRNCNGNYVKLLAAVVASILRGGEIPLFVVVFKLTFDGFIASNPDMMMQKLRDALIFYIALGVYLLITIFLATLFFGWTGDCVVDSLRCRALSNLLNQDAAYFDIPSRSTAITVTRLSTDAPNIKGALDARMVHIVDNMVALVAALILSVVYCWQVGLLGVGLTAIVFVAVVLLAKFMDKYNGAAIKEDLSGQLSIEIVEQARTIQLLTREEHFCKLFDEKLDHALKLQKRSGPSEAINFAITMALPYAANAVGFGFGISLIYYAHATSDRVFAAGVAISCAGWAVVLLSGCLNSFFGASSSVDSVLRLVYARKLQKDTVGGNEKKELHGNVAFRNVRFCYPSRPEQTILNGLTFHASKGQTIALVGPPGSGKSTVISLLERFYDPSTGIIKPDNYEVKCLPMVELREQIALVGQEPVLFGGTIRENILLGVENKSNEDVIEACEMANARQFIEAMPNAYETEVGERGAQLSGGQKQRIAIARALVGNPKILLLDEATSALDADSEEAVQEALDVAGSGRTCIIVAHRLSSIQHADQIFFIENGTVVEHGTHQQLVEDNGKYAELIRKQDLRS

[2] = tested on: non-transfected LLC-PK1 cells; type: cell-based, pig; conditions: possibly P-gp-independent mechanism

## COc1cc2c(cc1OC)CN(CCc1ccc(NC(=O)c3cc(OC)c(OC)cc3NC(=O)c3cnc4ccccc4c3)cc1)CC2 [Tariquidar, tariquidar]
[1]
  IC50: 68 µM and 68.5 µM

## CO[C@H]1C[C@H](O[C@@H]2/C(C)=C/C[C@@H]3C[C@@H](C[C@]4(CC[C@H](C)[C@@H](C5CCCCC5)O4)O3)OC(=O)[C@@H]3C=C(C)/C(=N/O)[C@H]4OC/C(=C\C=C\[C@@H]2C)[C@]43O)O[C@@H](C)[C@@H]1O [Selamectin, selamectin]
[1]
  IC50: 1020 µM

## C=CC[C@@H]1/C=C(\C)C[C@H](C)C[C@H](OC)[C@H]2O[C@@](O)(C(=O)C(=O)N3CCCC[C@H]3C(=O)O[C@H](/C(C)=C/[C@@H]3CC[C@@H](O)[C@H](OC)C3)[C@H](C)[C@@H](O)CC1=O)[C@H](C)C[C@@H]2OC [tacrolimus]
[2]
  Effect on release of H33342 from non-transfected cells: enhanced release of H33342 from non-transfected cells

## C/C=C/C[C@@H](C)C(=O)[C@H]1C(=O)N[C@@H](C(C)C)C(=O)N(C)CC(=O)N(C)[C@@H](CC(C)C)C(=O)N[C@@H](C(C)C)C(=O)N(C)[C@@H](CC(C)C)C(=O)N[C@@H](C)C(=O)N[C@H](C)C(=O)N(C)[C@@H](CC(C)C)C(=O)N(C)[C@@H](CC(C)C)C(=O)N(C)[C@@H](C(C)C)C(=O)N1C [Valspodar, valspodar]
[1]
  IC50: 3.01 µM

## COC(=O)[C@H]1[C@H]2C[C@@H]3c4[nH]c5cc(OC)ccc5c4CCN3C[C@H]2C[C@@H](OC(=O)c2cc(OC)c(OC)c(OC)c2)[C@@H]1OC [reserpine]
[2]
  Effect on release of H33342 from non-transfected cells: enhanced release of H33342 from non-transfected cells
